# Laboratory results: patent publication US20070117182A1, “Nucleic acids conferring transcriptional responsiveness on the RANKL gene promoter and uses thereof” (Wisconsin Alumni Research Foundation, priority 2005, published 2007)
# Assays:
# [1] = tested on: D5 fragment in COS7 cells; assay: pRL-D5/TK-luc reporter in COS7 cells with VDR expression vector; format: cell-based, mouse
# Protocol: FIG. 6. Transcriptional activity of the D5 regions of the RANKL gene in the context of the TK promoter. Sequence surrounding the D5 region (1072 bp) was cloned into the pTK-luciferase vector and termed pTK-RL(D5). […] Cells were harvested after 24 hours and luciferase activity assessed. B) ST2 cells were transfected as in A above but without the VDR expression vector and evaluated as in A. C) COS-7 cells were transfected and evaluated as in A above. Luciferase was normalized using beta-gal activity. Data represent the mean of triplicate determinations (SEM). The pTK-luc control vector was unresponsive to any of the inducers (see FIG. 9). *, p<0.05 vs no treatment control.
# (§1) The activity of an enhancer must be evaluated in the context of its local environment, preferentially in the context of both other enhancers and its native promoter. In the case of the RANKL gene, however, this is clearly not possible due to the numbers and the distant locations of the potential regulatory regions. […] To ensure that the viral TK promoter background was not contributing to our evaluation, the inventors cloned the mouse RANKL promoter (−100 to +65) into pGL3, inserted RL D5 and evaluated its activity in ST2 cells as well.
# [2] = tested on: D1-D4 regions of the RANKL gene; assay: pTK-RL(D1)-(D4) luciferase reporters in ST2 cells; format: cell-based, mouse
# Protocol: FIG. 12. Transcriptional activities of the D1-D4 regions of the RANKL gene in the context of the TK promoter were analyzed and corresponding data is shown in FIG. 12. The D1-D4 regions of the RANKL gene were cloned into the pTK vector and termed PTK-RL(D1)-(D4). […] Cells were harvested after 24 hours and luciferase activity assessed. Luciferase was normalized using beta-gal activity. Data in FIG. 12 represent the mean of triplicate determinations (SEM).
# as §1
# Transcriptional activities of the D1-D4 regions of the RANKL gene in the context of the TK promoter were analyzed and corresponding data is shown in FIG. 12. […] Cells were harvested after 24 hours and luciferase activity assessed. […]
# [3] = tested on: RANKL; assay: RT-PCR of RANKL transcripts in treated ST2 cells; format: cell-based, mouse; conditions: treated up to 24 hours, agent alone, vs beta-actin controls
# Protocol: FIG. 2. Induction of RANKL in ST2 cells by hormones and cytokines. ST2 cells were treated with the agents indicated for periods up to 24 hours. Total RNA was isolated and subjected to RT-PCR using a primer set to mouse RANKL and beta-actin. Positive vitamin D target control genes include Cyp24 and osteopontin (OPN).
# The inventors first established a model in which RANKL is both induced in response to 1,25(OH)2D3, PTH (forskolin) and oncostatin M (OSM), and is capable of supporting osteoclast formation when co-cultured with bone marrow monocyte- or spleen cell-derived osteoclast precursors. While a number of cell types express RANKL and induce osteoclastogenesis, the historical literature strongly supports mouse ST2 cells in this capacity, prompting the inventors to focus on this stromal/preosteoblastic line for initial studies. […] Each of these components is known to both induce RANKL expression and promote osteoclast formation as well. […] Indeed, GC effects are widely observed. […] The ability of GCs to enhance osteoclast formation in coculture assays in the presence of 1,25(OH)2D3, however, is likely due also to its coordinate ability to suppress OPG.
# [4] = tested on: mouse RANKL VDRE; assay: RANKL VDRE in TK promoter, luciferase reporter in ST2 cells; format: cell-based
# From the text: FIG. 8. The mouse RANKL VDRE is inducible by 1,25(OH)2D3. The mouse RANKL VDRE (sequence seen in FIG. 7) was cloned into the TK promoter, transfected into ST2 cells and evaluated for transcriptional regulation by 1,25(OH)2D3. A 10 to 15-fold induction mediated by the RL VDRE is observed. A similar induction is observed in the context of the RL minimal promoter. Data are the average of triplicate determinations, SEM.
# ChIP data are of inherent low resolution, making it difficult to identify the specific sequence to which the VDR/RXR heterodimer binds within the RL-CCL. 1,25(OH)2D3-inducibility of the RL-CCL DNA fragment, however, provides the opportunity to precisely map the location of the VDRE using mutagenesis. The inventors therefore subjected the RL-CCL DNA fragment to 5′ deletion analysis using PCR and prepared a series of fragments of the RL-CCL with increasingly fore-shortened 5′ termini as illustrated in FIG. 7a. These RANKL gene fragments were similarly cloned into the pTK-luc vector and their activities together with the wildtype D5 fragment examined in response to 1,25(OH)2D3, glucocorticoids and the combination following transfection into ST2 cells. […] As well, this region of the RL-CCL also contains a number of consensus GR binding half-sites, and at least one consensus GRE duplex site.
structure (smiles),measurement,setting,value
"C=C1/C(=C\C=C2/CCC[C@]3(C)[C@@H]([C@H](C)CCCC(C)(C)O)CC[C@@H]23)C[C@@H](O)C[C@@H]1O [1,25(OH)2D3]",stimulation via the D5 fragment in COS7 cells,[1],failed to stimulate
same,luciferase activity of regions D1 through D4,"[2]; increasing concentrations, no added VDR",failed to show increased activity
same,response from D2 and D3,[2]; with exogenous VDR expression vector,modest response
same,RANKL transcripts,[3],substantial time-dependent increase
same,induction mediated by the RL VDRE,[4],10 to 15 fold
